pIC50: −log10 of the molar value. Read-outs that look alike come from different tables or passages of the source.
Columns and labels:
Molt-4 cells = test: Inhibition of growth of acute lymphoblastic leukemia Molt-4 cells by MTT method; assay type: cell-based; settings: 72 hours; for inhibition at 1 µM: Homo sapiens, 10^−6M, read-out: The inhibition percentage of cell proliferation by the compounds with a concentration of 10^−6M, Molt-4 cells
Description: B: Inhibition of Growth of Acute Lymphoblastic Leukemia Molt-4 Cells by the Compounds Detected by MTT Method
(§1) The acute lymphoblastic leukemia Molt-4 cells from ATCC were maintained in RPMI-1640 and 10% fetal calf serum at 37° C. in a 5% CO2 atmosphere. The cells were subseeded in a 96-well culture plate at a concentration of 6×10^3 cells/well and maintained RPMI-1640 and 10% fetal calf serum at 37° C. 5%CO2 atmosphere. Molt-4 cells were treated with a test compound dissolved in DMSO at the concentration of 0, 10^−4M, 10^−5M, 10^−6M, 10^−7M, 10^−8M for 72 hours. OD value was tested by MTT method, and the inhibition ratio was calculated.

Daudi cells = test: Inhibition of human B lymphoma Daudi cells by CellTiter-Glo Luminescent Assay in vitro; assay type: cell-based; settings: 72 hours, read-out: Inhibition of viability of cells in vitro IC50, Daudi cells
Description: A: Inhibition of Human B Lymphoma Daudi Cells by CellTiter-Glo® Luminescent Assay In Vitro
The Human B Lymphoma Daudi cells from ATCC were maintained in IMDM and 10% fetal calf serum at 37° C. in a 5% CO2 atmosphere. The cells were subseeded in a 96-well culture plate at a concentration of 6×10^3 cells/well. Human B Lymphoma Daudi cells were treated with a test compound dissolved in DMSO at the concentration of 0, 0.3 μM, 0.5 μM, 1 μM, 2 μM, 3 μM, 10 μM, 20 μM, 30 μM, 50 μM and 100 μM for 72 hours. Treated cells were examined by CeliTiter-Glo® Luminescent Cell Viability Assay Kit (Promega), and luminescence were recorded with Envision.

K562 cells = test: Viability of chronic leukemia cells K562 by CellTiter-Glo Luminescent Assay in vitro; assay type: cell-based, human; settings: 72 hours, read-out: Inhibition of viability of cells in vitro IC50, K562 cells
Description: A: Detection of Viability of Chronic Leukemia Cells K562 by CellTiter-Glo® Luminescent Assay In Vitro
The chronic leukemia cells K562 from ATCC were maintained in IMDM and 10% fetal calf serum at 37° C. in a 5% CO2 atmosphere. The cells were subseeded in a 96-well culture plate at a cencentration of 6×10^3 cells/well.K562 cells were treated with a test compound dissolved in DMSO at the concentration of 0, 0.3 μM, 0.5 μM, 1 μM, 2 μM, 3 μM, 5 μM, 10 μM, 20 μM, 30 μM, 50 μM and 100 μM for 72 hours. Treated cells were examined by CellTiter-Glo® Luminescent Cell Viability Assay Kit (Promega), and luminescence were recorded with Envision.

HL-60 cells = test: Inhibition of growth of acute myeloblastic leukemia HL-60 cells by MTT method; assay type: cell-based, human; settings: 72 hours; for inhibition at 1 µM: Homo sapiens, 10^−6M, read-out: The inhibition percentage of cell proliferation by the compounds with a concentration of 10^−6M, HL-60 cells
Description: A: Inhibition of Growth of Acute Myeloblastic Leukemia HL-60 Cells by the Compounds Detected by MTT Method
as §1, with “myeloblastic” for “lymphoblastic”, “HL-60” for “Molt-4”, “IMDM” for “RPMI-1640”, “cells/well. HL-60” for “cells/well and maintained RPMI-1640 and 10% fetal calf serum at 37° C. 5%CO2 atmosphere. Molt-4”

MCF7 cells = test: CellTiter-Glo Luminescent Cell Viability Assay on ER-positive breast cancer MCF-7 cells in vitro; assay type: cell-based; settings: Homo sapiens, 72 hours, read-out: Inhibition of viability of breast cancer cells IC50, MCF7 cells
Description: B: CellTiter-Glo® Luminescent Cell Viability Assay on ER-Positive Breast Cancer MCF-7 Cells In Vitro:
MCF7 cells from ATCC were maintained in an Dulbecco's modified Eagle medium (DMEM), and 10% fetal calf serum at 37 in a 5% CO2 atmosphere. Cells were placed at a density of 6×10^3 cells per well in a 96-well plate. MCF 7 cells were treated with a test compound dissolved in DMSO at the concentration of 0, 0.3 μM, 0.5 μM, 1 μM, 2 μM, 3 μM, 5 μM, 10 μM, 20 μM, 30 μM, 50 μM and 100 μM for 72 hours. Treated cells were examined through CellTiter-Glo® Luminescent Cell Viability Assay Kit (Promega), and luminescence were recorded with Envision.

BEL-7402 cells = test: Inhibition of liver cancer cell BEL-7402 in vitro by SRB; assay type: cell-based; settings: Homo sapiens, 10^−6M, 72 hours, read-out: The inhibition percentage of cell proliferation by the compounds with a concentration of 10^−6M, BEL-7402 cells
Description: A: Inhibition of Liver Cancer Cell BEL-7402 In Vitro by the Compounds Detected by SRB
The liver cancer BEL-7402 cells from ATCC were maintained in DMDM, 10% NCS and 50 μg/ml KANA at 37° C. in a 5% CO2 atmosphere, and were subseeded in a 96-well culture plate at a concentration of 6×10^3 cells/well. BEL-7402 cells were treated with a test compound dissolved in DMSO at the concentration of 0, 10^−4M, 10^−5M, 10^−6M, 10^−7M, 10^−8M for 72 hours. OD value was tested by SRB method, and the inhibition percentage was calculated.

MDA-MB-231 cells = test: CellTiter-Glo Luminescent Cell Viability Assay on ER-negative breast cancer MDA-MB-231 cells in vitro; assay type: cell-based; settings: Homo sapiens, 72 hours, read-out: Inhibition of viability of breast cancer cells IC50, MDA-MB-231 cells
Description: A: CellTiter-Glo® Luminescent Cell Viability Assay on ER-Negative Breast Cancer MDA-MB-231 In Vitro:
MDA-MB-231 cells were maintained at 37° C., in a 5% CO2 atmosphere in DMEM and 10% fetal calf serum. The cells were placed at a density of 6×10^3 cells per well in a 96-well plate. MDA-MB-231 cells were treated with a test compound dissolved in DMSO at the concentration of 0, 0.3 μM, 0.5 μM, 1 μM, 2 μM, 3 μM, 5 μM, 10 μM, 20 μM, 30 μM, 50 μM and 100 μM for 72 hours. Treated cells were examined under CellTiter-Glo® Luminescent Cell Viability Assay Kit (Promega), and luminescence were recorded with Envision.

Compound | pIC50 (Daudi cells) | pIC50 (K562 cells) | pIC50 (MCF7 cells) | pIC50 (Daudi cells; Homo sapiens) | pIC50 (K562 cells; Homo sapiens) | pIC50 (MDA-MB-231 cells) | The inhibition percentage of cell proliferation by the compounds with a concentration of 10^−6M, Molt-4 cells (Molt-4 cells) | The inhibition percentage of cell proliferation by the compounds with a concentration of 10^−6M, HL-60 cells (HL-60 cells) | inhibition at 1 µM (Molt-4 cells) [%] | inhibition at 1 µM (BEL-7402 cells) [%] | inhibition at 1 µM (HL-60 cells) [%]
CC(C)=CCc1c(O)cc(O)c2c(=O)c(O)c(-c3ccc(F)cc3)oc12 [Compound 2, 2-(4-fluorophenyl)-3,5,7-trihydroxy-8-(3-methyl-2-buten-1-yl)-4H-chromen-4-one] |  |  | 5.50 | 5.03 | 5.21 | < 4.00 |  |  | < 10 | 21.8 | 
CC(C)=CCc1c(O)cc(O)c2c(=O)c(O)c(-c3ccc(OC(F)(F)F)cc3)oc12 [Compound 5, 2-(4-trifluoromethoxyphenyl)-3,5,7-trihydroxy-8-(3-methyl-2-buten-1-yl)-4H-chromen-4-one] |  |  | 5.16 | 5.83 | 5.83 | 5.35 |  |  | 69.4 | 15.6 | 59.8
CC(C)=CCc1c(O)cc(O)c2c(=O)c(O)c(-c3ccc(Cl)c(Cl)c3)oc12 [Compound 6, 2-(3,4-dichlorophenyl)-3,5,7-trihydroxy-8-(3-methyl-2-buten-1-yl)-4H-chromen-4-one] |  |  | 5.16 | 5.70 | 6.03 | 5.73 |  |  | 67.4 | 14.9 | 61.9
COc1c(-c2ccc(C(F)(F)F)cc2)oc2c(CC=C(C)C)c(O)cc(O)c2c1=O [Compound 9, 2-(4-trifluoromethylphenyl)-3-methoxy-5,7-dihydroxy-8-(3-methyl-2-buten-1-yl)-4H-chromen-4-one] |  |  | < 4.00 |  |  | < 4.00 |  |  | < 10 | 11.7 | < 10
COc1cccc2c1C(=O)c1c(O)c3c(c(O)c1C2=O)C[C@@](O)(C(=O)CO)C[C@@H]3O[C@H]1C[C@H](N)[C@H](O)[C@H](C)O1 [Doxorubicin, reference compound] |  |  |  |  |  |  |  |  | 90.1 | 55.2 | 79

Now from value to compound, other results behind:

pIC50 (Daudi cells) | pIC50 (K562 cells) | pIC50 (MCF7 cells) | pIC50 (Daudi cells; Homo sapiens) | pIC50 (K562 cells; Homo sapiens) | pIC50 (MDA-MB-231 cells) | Compound | The inhibition percentage of cell proliferation by the compounds with a concentration of 10^−6M, Molt-4 cells (Molt-4 cells) | The inhibition percentage of cell proliferation by the compounds with a concentration of 10^−6M, HL-60 cells (HL-60 cells) | inhibition at 1 µM (Molt-4 cells) [%] | inhibition at 1 µM (BEL-7402 cells) [%] | inhibition at 1 µM (HL-60 cells) [%]
< 4.00 | < 4.00 |  |  |  |  | 2-(4-fluorophenyl)-3-methoxy-5,7-dihydroxy-8-(3-methyl-2-buten-1-yl)-4H-chromen-4-one [Compound 11] | NA (NA means no activity, and inhibition percentage by the compound with a concentration of 10^−6M was below 10%.) | NA (NA means no activity, and inhibition percentage by the compound with a concentration of 10^−6M was below 10%.) |  |  | 
 |  | 5.07 | 5.54 | 5.73 | 5.54 | CC(C)=CCc1c(O)cc(O)c2c(=O)c(O)c(-c3ccc(Cl)c(F)c3)oc12 [Compound 3, 2-(3-fluoro-4-chlorophenyl)-3,5,7-trihydroxy-8-(3-methyl-2-buten-1-yl)-4H-chromen-4-one] |  |  | 14.4 | 28.6 | 28.5
 |  | 4.80 | 5.58 | 6.01 | 5.36 | CC(C)=CCc1c(O)cc(O)c2c(=O)c(O)c(-c3ccc(Cl)cc3)oc12 [Compound 4, 2-(4-chlorophenyl)-3,5,7-trihydroxy-8-(3-methyl-2-buten-1-yl)-4H-chromen-4-one] |  |  | 14.7 | 46.4 | 0.974
 |  | 5.12 | 5.39 | 5.21 | 5.03 | CC(C)=CCc1c(O)cc(O)c2c(=O)c(O)c(-c3ccc(Cl)c(C(F)(F)F)c3)oc12 [Compound 7, 2-(3-trifluoromethyl-4-chlorophenyl)-3,5,7-trihydroxy-8-(3-methyl-2-buten-1-yl)-4H-chromen-4-one] |  |  | 57 | 19.8 | < 10
 |  | 4.50 | 4.66 | < 4.00 | < 4.00 | COc1c(-c2ccc(F)c(F)c2)oc2c(CC=C(C)C)c(O)cc(O)c2c1=O [Compound 10, 2-(3,4-difluorophenyl)-3-methoxy-5,7-dihydroxy-8-(3-methyl-2-buten-1-yl)-4H-chromen-4-one] |  |  |  | 17.4 | 
5.00 |  |  |  |  |  | Nc1ccn([C@@H]2O[C@H](CO)[C@@H](O)[C@@H]2O)c(=O)n1 [cytarabinen, reference compound] |  |  |  |  | 

Reference: patent publication US9221781B2, “Synthesis of polyhydroxy chromenone compounds and their anti-tumor effects” (BEIJING SHENOGEN PHARMA GROUP LTD., priority 2012, dated 2015)
